Measurements taken from patent US20070197426A1, “Lactoferrin polypeptide, process for producing the same and inflammation inducing substance” (priority 2004, published 2007).

How the values were obtained:
Format in all cases: cell-based
Conditions in all cases: normal human peripheral blood lymphocytes
IL-6 = IL-6 production by human peripheral blood lymphocytes co-cultured with peptide (enzyme antibody method)
Protocol: (§1) Lymphocytes were separated from normal human peripheral blood, which was collected by using heparin sodium, by specific gravity centrifugation using Lympholight H (Cedarlane, Canada), and inducing ability for production of various cytokines and chemokines and inducing ability for expression of NFκBp65, a cellular transcription factor, were analyzed using the lymphocytes. Human cytokines (IL-6 and TNFα; Techne Co., USA), chemokines (IL-8 and MCP-1; American Research Product, Inc., USA) and on NFκB (TransAM NFκB family transcription factor assay kit; Active Motif, Co., USA) were measured by enzyme antibody method.

IL-8 = IL-8 production by human peripheral blood lymphocytes co-cultured with peptide (enzyme antibody method)
Protocol: as §1

MCP-1 = MCP-1 production by human peripheral blood lymphocytes co-cultured with peptide (enzyme antibody method)
Protocol: as §1

NFκBp65 = NFκBp65 expression in human peripheral blood lymphocytes (TransAM NFκB family transcription factor assay kit)
Protocol: as §1

Substance: FKDCHLA [HuPep1]
- production of IL-6, one inflammatory cytokine (IL-6): could be confirmed
- inducing ability for production of IL-8 (IL-8): confirmed
- inducing ability for production of MCP-1 (MCP-1): confirmed
- enhancement of expression of NFκBp65, a cellular transcription factor (NFκBp65): confirmed

Substance: GQKDLLFKDSAI [HuPep4]
- production of IL-6, one inflammatory cytokine (IL-6): could be confirmed
- inducing ability for production of IL-8 (IL-8): confirmed
- inducing ability for production of MCP-1 (MCP-1): confirmed
- enhancement of expression of NFκBp65, a cellular transcription factor (NFκBp65): confirmed
